The source of these data is patent publication US20230416205A1, “COMPOUNDS, COMPOSITIONS, AND METHODS” (Denali Therapeutics Inc, priority 2020, published 2023).

One test deals with NLRP3. The experiment in a line: IL-1β secretion assay in PMA-differentiated, LPS/nigericin-stimulated THP-1 cells (384-well, ELISA read-out). Particulars: Homo sapiens, THP-1, Table 4; IL-1β secretion, LPS/nigericin-stimulated THP-1 cells; read-out: IC50. Type of test: cell-based, human. A digest of the protocol:
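Secreted IL-1β quantified by capture ELISA from supernatants of PMA-differentiated THP-1 cells (30K per well). Sequence: LPS 25 ng/mL priming 2 h, compound 1 h, nigericin 2 h; dose-responses normalized between high (LPS plus 5 μM nigericin) and low (LPS alone) controls.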
One may read the IC50 as the midpoint of a concentration-inhibition curve. Take `O=C(CN1CC2(CC2)c2nc(C3CC3)ccc2C1=O)Nc1ncc(F)cn1` [Example 311, 2-(2-cyclopropyl-5-oxospiro[7H-1,6-naphthyridine-8,1′-cyclopropane]-6-yl)-N-(5-fluoropyrimidin-2-yl)acetamide]: the IC50 came to 1.41 µM.

As for `CC(F)c1ccc2c(c1)C1(CC1)CN(CC(=O)Nc1ncc(F)cn1)C2=O` (stereo not shown) [Example 312, 2-[6-(1-fluoroethyl)-1-oxospiro[3H-isoquinoline-4,1′-cyclopropane]-2-yl]-N-(5-fluoropyrimidin-2-yl)acetamide], the IC50 was determined as 1.02 µM.

For `CCc1ccc2c(c1)C1(CC1)CN(CC(=O)Nc1ncc(F)cn1)C2=O` [Example 314, 2-(6-ethyl-1-oxospiro[3H-isoquinoline-4,1′-cyclopropane]-2-yl)-N-(5-fluoropyrimidin-2-yl)acetamide], the IC50 was determined as 0.784 µM.

Turning to `O=C(CN1CC2(CC2)c2c(ccc3sccc23)C1=O)Nc1ncc(F)cn1` [Example 315, N-(5-fluoropyrimidin-2-yl)-2-(6-oxospiro[8H-thieno[3,2-f]isoquinoline-9,1′-cyclopropane]-7-yl)acetamide], the IC50 stood at 8.92 µM.

As for `COCOc1cnc(NC(=O)CN2CC3(CC3)c3cc(Br)ccc3C2=O)nc1` [Example 316, 2-(6-bromo-1-oxospiro[3H-isoquinoline-4,1′-cyclopropane]-2-yl)-N-[5-(methoxymethoxy)pyrimidin-2-yl]acetamide], the 50% inhibitory concentration (IC50) came out at 0.704 µM.

Regarding `CC1(O)CC(NC(=O)CN2C[C@]3(C[C@H]3F)c3cc(Br)ccc3C2=O)C1` (stereo partly drawn) [Example 321, N-(cis-3-hydroxy-3-methylcyclobutyl)-2-[(2′R,4S)-6-bromo-2′-fluoro-1-oxospiro[3H-isoquinoline-4,1′-cyclopropane]-2-yl]acetamide], the IC50 is 0.009 µM.

For the compound `O=C(CN1CC2(CC2(F)F)c2c(ccc(C3CC3)c2F)C1=O)Nc1ncc(F)cn1` (stereo not shown) [Example 322, N-(5-fluoropyrimidin-2-yl)-2-[6-cyclopropyl-1′,1′,5-trifluoro-1-oxospiro[3H-isoquinoline-4,2′-cyclopropane]-2-yl]acetamide], the IC50 worked out at 0.038 µM.

Turning to `O=C(CN1CC2(CC2)c2cc(Br)ccc2C1=O)Nc1ncc2c(n1)OCC2` [Example 329, 2-(6-bromo-1-oxospiro[3H-isoquinoline-4,1′-cyclopropane]-2-yl)-N-(5,6-dihydrofuro[2,3-d]pyrimidin-2-yl)acetamide], the IC50 was determined as 0.93 µM.

Consider `O=C(CN1CC2(CC2)c2cc(Br)ccc2C1=O)Nc1ncc2c(n1)COCC2` [Example 330, 2-(6-bromo-1-oxospiro[3H-isoquinoline-4,1′-cyclopropane]-2-yl)-N-(6,8-dihydro-5H-pyrano[3,4-d]pyrimidin-2-yl)acetamide], for which the IC50 amounted to 1.02 µM.

On to `O=C(CN1CC2(CC2)c2cc(Br)ccc2C1=O)Nc1ncc2c(n1)CCOC2` [Example 331, 2-(6-bromo-1-oxospiro[3H-isoquinoline-4,1′-cyclopropane]-2-yl)-N-(7,8-dihydro-5H-pyrano[4,3-d]pyrimidin-2-yl)acetamide], for which the IC50 was determined as 0.97 µM.

Regarding `O=C(CN1CC2(CC2)c2cc(Br)ccc2C1=O)Nc1ncc(C2COC2)cn1` [Example 332, 2-(6-bromo-1-oxospiro[3H-isoquinoline-4,1′-cyclopropane]-2-yl)-N-[5-(oxetan-3-yl)pyrimidin-2-yl]acetamide], the IC50 was 0.768 µM.

As for `O=C(CN1CC2(CC2)c2cc(Br)ccc2C1=O)Nc1nc2ccnn2cc1F` [Example 333, 2-(6-bromo-1-oxospiro[3H-isoquinoline-4,1′-cyclopropane]-2-yl)-N-(6-fluoropyrazolo[1,5-a]pyrimidin-5-yl)acetamide], the IC50 is 0.895 µM.

For `O=C(CN1CC2(CC2)c2cc(Br)ccc2C1=O)N[C@H]1C[C@@H](c2ccn[nH]2)C1` [Example 334, 2-(6-bromo-1-oxospiro[3H-isoquinoline-4,1′-cyclopropane]-2-yl)-N-[3-cis-(1H-pyrazol-5-yl)cyclobutyl]acetamide], the IC50 is 7.51 µM.

For the compound `Cn1nc(NC(=O)CN2CC3(CC3)c3cc(Br)ccc3C2=O)ccc1=O` [Example 335, 2-(6-bromo-1-oxospiro[3H-isoquinoline-4,1′-cyclopropane]-2-yl)-N-(1-methyl-6-oxopyridazin-3-yl)acetamide], the IC50 turned out to be 2.08 µM.

With `O=C(CN1CC2(CC2)c2cc(C3COC3)ccc2C1=O)Nc1ncc(F)cn1` [Example 336, N-(5-fluoropyrimidin-2-yl)-2-[6-(oxetan-3-yl)-1-oxospiro[3H-isoquinoline-4,1′-cyclopropane]-2-yl]acetamide], the IC50 came to 23.2 µM.

As for `Cn1cc(NC(=O)CN2CC3(CC3)c3cc(Br)ccc3C2=O)ncc1=O` [Example 337, 2-(6-bromo-1-oxospiro[3H-isoquinoline-4,1′-cyclopropane]-2-yl)-N-(4-methyl-5-oxopyrazin-2-yl)acetamide], the IC50 is 7.47 µM.

Consider `COc1ccnc(NC(=O)CN2CC3(CC3)c3cc(Br)ccc3C2=O)n1` [Example 338, 2-(6-bromo-1-oxospiro[3H-isoquinoline-4,1′-cyclopropane]-2-yl)-N-(4-methoxypyrimidin-2-yl)acetamide], for which the IC50 stood at 1.58 µM.

As to `CC(C(=O)Nc1ncc(F)cn1)N1CC2(CC2)c2cc(Br)ccc2C1=O` (stereo not shown) [Example 339, 2-(6-bromo-1-oxospiro[3H-isoquinoline-4,1′-cyclopropane]-2-yl)-N-(5-fluoropyrimidin-2-yl)propanamide], the IC50 was 8.29 µM.

Turning to `CN(C(=O)CN1CC2(CC2)c2cc(Br)ccc2C1=O)C1CC(C)(O)C1` (stereo not drawn) [Example 342, 2-(6-bromo-1-oxospiro[3H-isoquinoline-4,1′-cyclopropane]-2-yl)-N-(3-cis-hydroxy-3-methylcyclobutyl)-N-methylacetamide], the IC50 is 17.1 µM.

For the compound `O=C(CN1CC2(CC2)c2cc(Br)ccc2C1=O)Nc1nc2ccccn2c1F` [Example 343, 2-(6-bromo-1-oxospiro[3H-isoquinoline-4,1′-cyclopropane]-2-yl)-N-(3-fluoroimidazo[1,2-a]pyridin-2-yl)acetamide], the IC50 was determined as 7.5 µM.

In the case of `CC1(C(F)(F)F)CN(CC(=O)Nc2ncc(F)cn2)C(=O)c2c(Br)cccc21` (stereo not shown) [Example 344, 2-[8-bromo-4-methyl-1-oxo-4-(trifluoromethyl)-3H-isoquinolin-2-yl]-N-(5-fluoropyrimidin-2-yl)acetamide], the IC50 is 27.6 µM.

`N#Cc1cc(F)c(NC(=O)CN2CC3(CC3)c3cc(Br)ccc3C2=O)cn1` [Example 345, 2-(6-bromo-1-oxospiro[3H-isoquinoline-4,1′-cyclopropane]-2-yl)-N-(6-cyano-4-fluoropyridin-3-yl)acetamide]: the IC50 was determined as 15.1 µM.

Consider `O=C(CN1CC2(CC2)c2cc(Br)ccc2C1=O)Nc1nccn2ncnc12` [Example 346, 2-(6-bromo-1-oxospiro[3H-isoquinoline-4,1′-cyclopropane]-2-yl)-N-([1,2,4]triazolo[1,5-a]pyrazin-8-yl)acetamide], for which the IC50 came to 1.57 µM.

Turning to `CN1CCC(NC(=O)CN2CC3(CC3)c3cc(Br)ccc3C2=O)C1=O` (stereo not shown) [Example 347, 2-(6-bromo-1-oxospiro[3H-isoquinoline-4,1′-cyclopropane]-2-yl)-N-(1-methyl-2-oxopyrrolidin-3-yl)acetamide], the IC50 came out at 21.5 µM.

`Cn1ccnc(NC(=O)CN2CC3(CC3)c3cc(Br)ccc3C2=O)c1=O` [Example 348, 2-(6-bromo-1-oxospiro[3H-isoquinoline-4,1′-cyclopropane]-2-yl)-N-(4-methyl-3-oxopyrazin-2-yl)acetamide]: the IC50 was 1.32 µM.

Turning to `O=C(CN1CC2(CC2)c2cc(Br)ccc2C1=O)Nc1nccc2cccnc12` [Example 349, 2-(6-bromo-1-oxospiro[3H-isoquinoline-4,1′-cyclopropane]-2-yl)-N-(1,7-naphthyridin-8-yl)acetamide], the IC50 stood at 4.76 µM.

Regarding `O=C(CN1CC2(CC2)c2cc(Br)ccc2C1=O)Nc1nccn2cnnc12` [Example 350, 2-(6-bromo-1-oxospiro[3H-isoquinoline-4,1′-cyclopropane]-2-yl)-N-([1,2,4]triazolo[4,3-a]pyrazin-8-yl)acetamide], the IC50 worked out at 3.59 µM.

Regarding `O=C(CN1CC2(CC2)c2cc(Br)ccc2C1=O)Nc1nccn2ccnc12` [Example 351], the IC50 amounted to 4.23 µM.

As for `O=C(CN1CC2(CC2)c2cc(Br)ccc2C1=O)Nc1nnc2ccccc2n1` [Example 352, N-(1,2,4-benzotriazin-3-yl)-2-(6-bromo-1-oxospiro[3H-isoquinoline-4,1′-cyclopropane]-2-yl)acetamide], the IC50 worked out at 6.08 µM.

As to `CC1(C)CN=C(NC(=O)CN2CC3(CC3)c3cc(Br)ccc3C2=O)O1` [Example 353, 2-(6-bromo-1-oxospiro[3H-isoquinoline-4,1′-cyclopropane]-2-yl)-N-(5,5-dimethyl-4H-1,3-oxazol-2-yl)acetamide], the IC50 turned out to be 5.42 µM.

Take `O=C(CN1CC2(CC2)c2cc(C(F)(F)F)cc(Cl)c2C1=O)Nc1ncc(F)cn1` [Example 354, 2-[8-chloro-1-oxo-6-(trifluoromethyl)spiro[3H-isoquinoline-4,1′-cyclopropane]-2-yl]-N-(5-fluoropyrimidin-2-yl)acetamide]: the IC50 worked out at 24 µM.

For the compound `O=C(CN1CC2(CC2)c2cc(Br)ccc2C1=O)N[C@@H]1CCN(Cc2ccccc2)C1` [Example 355, N-[(3R)-1-benzylpyrrolidin-3-yl]-2-(6-bromo-1-oxospiro[3H-isoquinoline-4,1′-cyclopropane]-2-yl)acetamide], the IC50 stood at 5.02 µM.

Still in this test, the particulars now being: Table 4; IL-1β secretion, LPS/nigericin-stimulated THP-1 cells; read-out: IC50.
As to `COC1(C)CC(NC(=O)CN2CC3(CC3)c3cc(Br)ccc3C2=O)C1` (stereo not drawn) [Example 340, 2-(6-bromo-1-oxospiro[3H-isoquinoline-4,1′-cyclopropane]-2-yl)-N-(3-trans-methoxy-3-methylcyclobutyl)acetamide], the IC50 stood at 7.87 µM.

As for `COC1(C)CC(NC(=O)CN2CC3(CC3)c3cc(Br)ccc3C2=O)C1` (stereo not drawn) [Example 341, 2-(6-bromo-1-oxospiro[3H-isoquinoline-4,1′-cyclopropane]-2-yl)-N-(3-cis-methoxy-3-methylcyclobutyl)acetamide], the IC50 came out at 2.41 µM.
